Source: ChEMBL document CHEMBL4680278 (J Med Chem, 2020)

Columns and labels:
[1] = Half-life in human at 20 mg, iv measured after 0.05 to 72 hrs by gas chromatograph mass spectrometry; format: ADME, organism-based; conditions: in vivo, time 0.05-72 hrs
[2] = Elimination rate constant in human using oromucosal-spray measured for 6 weeks
[3] = Maximum drug concentration in Swiss mouse brain at 120 mg/kg, po measured up to 24 hrs by HPLC analysis; format: ADME, organism-based; set-up: route oral, dose 120 mg/kg, time <=24
[4] = biological target: T1, 5-hydroxytryptamine receptor 2C (Homo sapiens, UniProt P28335); assay: Inhibition of 5-HT2C (unknown origin)
T1 sequence (P28335 whole entry): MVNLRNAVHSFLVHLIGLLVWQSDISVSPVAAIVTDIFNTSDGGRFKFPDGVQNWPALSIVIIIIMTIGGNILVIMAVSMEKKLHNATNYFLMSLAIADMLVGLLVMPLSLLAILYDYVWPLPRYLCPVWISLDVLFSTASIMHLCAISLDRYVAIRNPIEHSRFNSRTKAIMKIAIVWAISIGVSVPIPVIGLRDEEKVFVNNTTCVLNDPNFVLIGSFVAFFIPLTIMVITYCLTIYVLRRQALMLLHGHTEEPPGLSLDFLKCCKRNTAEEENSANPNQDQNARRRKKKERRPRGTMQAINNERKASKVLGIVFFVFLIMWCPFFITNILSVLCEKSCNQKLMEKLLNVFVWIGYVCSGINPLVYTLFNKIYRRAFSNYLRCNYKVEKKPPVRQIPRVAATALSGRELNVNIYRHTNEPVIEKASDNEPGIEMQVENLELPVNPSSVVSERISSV

[5] = Elimination half-life in human at 20 mg using aerosol spray measured for 6 weeks; format: ADME; conditions: in vivo, inhaled_or_intranasal, 1008 h
[6] = Volume of distribution in human at 20 mg, iv measured after 0.05 to 72 hrs by gas chromatograph mass spectrometry; format: ADME, organism-based; conditions: in vivo, time 0.05-72 hrs
Cytochrome P450 1A2 = biological target: T2, Cytochrome P450 1A2 (Homo sapiens, UniProt P05177); assay: Competitive inhibition of human recombinant CYP1A2 using 7-Ethoxyresorufin as substrate by Lineweaver-Burk plot analysis; format: ADME; conditions: read-out: Ki(app)
T2 sequence (P05177 whole entry): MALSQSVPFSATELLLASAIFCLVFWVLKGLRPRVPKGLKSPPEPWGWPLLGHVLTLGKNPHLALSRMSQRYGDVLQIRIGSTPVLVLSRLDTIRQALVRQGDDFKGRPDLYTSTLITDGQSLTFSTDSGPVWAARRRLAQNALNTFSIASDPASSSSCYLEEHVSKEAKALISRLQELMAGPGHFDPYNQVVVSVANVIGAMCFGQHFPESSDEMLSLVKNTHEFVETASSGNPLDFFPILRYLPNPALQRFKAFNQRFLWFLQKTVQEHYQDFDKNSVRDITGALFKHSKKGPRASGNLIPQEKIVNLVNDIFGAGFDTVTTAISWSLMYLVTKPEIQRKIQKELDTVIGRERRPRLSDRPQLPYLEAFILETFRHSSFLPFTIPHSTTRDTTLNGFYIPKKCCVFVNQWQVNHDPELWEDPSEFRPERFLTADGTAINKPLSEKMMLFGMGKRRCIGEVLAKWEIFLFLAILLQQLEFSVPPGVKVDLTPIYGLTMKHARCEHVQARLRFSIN

[7] = biological target: T3, Alpha-2B adrenergic receptor (Homo sapiens, UniProt P18089); assay: Inhibition of alpha2B receptor (unknown origin)
T3 sequence (P18089 whole entry): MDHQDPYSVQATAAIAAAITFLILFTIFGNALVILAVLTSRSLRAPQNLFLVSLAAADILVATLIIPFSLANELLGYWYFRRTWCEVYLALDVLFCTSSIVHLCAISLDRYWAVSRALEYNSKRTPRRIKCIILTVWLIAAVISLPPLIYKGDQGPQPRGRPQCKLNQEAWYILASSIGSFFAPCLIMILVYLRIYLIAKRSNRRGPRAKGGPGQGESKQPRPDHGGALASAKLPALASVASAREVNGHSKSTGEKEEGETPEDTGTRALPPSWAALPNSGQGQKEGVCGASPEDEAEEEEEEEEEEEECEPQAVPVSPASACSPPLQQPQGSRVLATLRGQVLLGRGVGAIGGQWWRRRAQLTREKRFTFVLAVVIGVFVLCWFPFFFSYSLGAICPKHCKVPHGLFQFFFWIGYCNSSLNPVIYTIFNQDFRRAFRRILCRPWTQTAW

[8] = Protein binding in human plasma incubated for 20 to 24 hrs; format: ADME, cell-free; conditions: time 20-24 hrs, read-out: PPB (converted)
Cytochrome P450 3A7 = Cytochrome P450 3A7 (Homo sapiens, UniProt P24462); assay: Mixed type inhibition of human recombinant CYP3A7 expressed in baculovirus-infected insect cells using diltiazem as substrate incubated for 30 mins followed by NADPH-generating system addition by Michaelis-Menten plot analysis; format: ADME
Sequence of Cytochrome P450 3A7 (P24462 whole entry): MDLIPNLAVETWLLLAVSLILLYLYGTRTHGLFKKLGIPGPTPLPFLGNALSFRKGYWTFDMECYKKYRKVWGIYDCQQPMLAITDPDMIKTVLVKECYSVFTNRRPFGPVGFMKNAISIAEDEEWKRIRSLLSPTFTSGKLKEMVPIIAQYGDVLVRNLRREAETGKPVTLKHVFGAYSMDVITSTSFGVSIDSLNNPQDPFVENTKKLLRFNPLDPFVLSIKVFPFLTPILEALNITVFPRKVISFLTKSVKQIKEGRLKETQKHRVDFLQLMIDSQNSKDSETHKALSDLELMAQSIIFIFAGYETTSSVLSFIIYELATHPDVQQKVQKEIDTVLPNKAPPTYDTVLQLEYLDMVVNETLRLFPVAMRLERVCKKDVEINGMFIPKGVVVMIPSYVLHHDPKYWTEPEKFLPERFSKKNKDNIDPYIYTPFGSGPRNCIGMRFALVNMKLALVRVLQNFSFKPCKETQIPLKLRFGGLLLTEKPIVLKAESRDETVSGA

Structure (SMILES): C=C(C)[C@@H]1CCC(C)=C[C@H]1c1c(O)cc(CCCCC)cc1O [CANNABIDIOL]
- half-life [1]: 24 h
- k el at 1008 h [2]: 3.33e-05 s⁻¹
- Cmax [3]: 4 µM
- Ki [4]: 1100 nM
- beta t1/2 [5]: 2 h
- Vd [6]: 2520 L
- Ki (Cytochrome P450 1A2): 2690 nM
- Ki [7]: 3200 nM
- fraction unbound [8]: 0.1
- Ki (Cytochrome P450 3A7): 12300 nM
